Where only a bound is given, the exact number is not on record here.

Our source for the EC50 values is patent US20230075856A1, “CYCLIC SULFAMIDE COMPOUNDS FOR TREATMENT OF HBV” (Assembly Biosciences, Inc., priority 2018, published 2023).

The first assay concerns HBV viral load production from HepAD38 cells. Nature of the assay: Viral production from HepAD38 cells: viral load in supernatant by qPCR of the HBV core sequence. The assay is classed as cell-based. Particulars: 5 days incubation, qPCR of supernatant HBV DNA vs DMSO control, read-out: viral load lowering EC50 (Activity). Summed up:
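HepAD38 cells seeded at 50,000/well in tetracycline-free medium with 2% FBS, treated with compounds (final top concentration 10 μM) for 5 days at 37 °C. Supernatant HBV DNA quantified by TaqMan qPCR of core sequence against HBV DNA standards, relative to DMSO controls; EC50 by four-parameter logistic fit.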
For the compound `CN1C(C(=O)Nc2ccc(F)c(Cl)c2)CC(C(=O)NCc2cnc(-c3ccc(OCCCN4CCSCC4)cc3)s2)NS1(=O)=O` (single isomer, unassigned) [Compound 925-ISOMER-B, N3-(3-chloro-4-fluoro-phenyl)-2-methyl-1,1-dioxo-N5-[[2-[4-(3-thiomorpholinopropoxy)phenyl]thiazol-5-yl]methyl]-1,2,6-thiadiazinane-3,5-dicarboxamide], the EC50 was in the range of 100 to 10000 nM. Same read-out and setting: with `Cc1cn(-c2ccccc2)nc1CNC(=O)C1CC(C(=O)Nc2ccc(F)c(C#N)c2)N(C)S(=O)(=O)N1` (single isomer, unassigned) [1134-ISOMER-B, N3-(3-cyano-4-fluoro-phenyl)-2-methyl-N5-[(4-methyl-1-phenyl-pyrazol-3-yl)methyl]-1,1-dioxo-1,2,6-thiadiazinane-3,5-dicarboxamide] the figure was under 50 nM.

On to `C[C@@H](NC(=O)C1CC(C(=O)Nc2ccc(F)c(Cl)c2)N(C)S(=O)(=O)N1)c1ccccc1` (single isomer, unassigned) [Compound 719-ISOMER-B], for which the concentration for a half-maximal effect (EC50) is 100 to 10000 nM. Consider `CN1C(C(=O)Nc2ccc(F)c(Cl)c2)CC(C(=O)NCc2cccc(Cl)c2)NS1(=O)=O` (single isomer, unassigned) [Compound 730-ISOMER-B, N3-(3-chloro-4-fluorophenyl)-N5-[(3-chlorophenyl)methyl]-2-methyl-1,1-dioxo-1,2,6-thiadiazinane-3,5-dicarboxamide], for which the EC50 lay within 100 to 10000 nM. With `CN1C(C(=O)Nc2ccc(F)c(Cl)c2)CC(C(=O)NC2CCN(C(=O)OC(C)(C)C)CC2)NS1(=O)=O` (single isomer, unassigned) [Compound 767-ISOMER-B, tert-butyl 4-[[5-[(3-chloro-4-fluoro-phenyl)carbamoyl]-6-methyl-1,1-dioxo-1,2,6-thiadiazinane-3-carbonyl]amino]piperidine-1-carboxylate], the EC50 is 100 to 10000 nM. Same read-out and setting: with `Cc1csc(CNC(=O)C2CC(C(=O)Nc3ccc(F)c(Cl)c3)N(C)S(=O)(=O)N2)n1` (single isomer, unassigned) [Compound 686-ISOMER-B, N3-(3-chloro-4-fluoro-phenyl)-2-methyl-N5-[(4-methylthiazol-2-yl)methyl]-1,1-dioxo-1,2,6-thiadiazinane-3,5-dicarboxamide] the figure was under 50 nM.

Still in this assay, the particulars now being: Hepatitis B virus, HePAD38, 120 h, 5 days incubation, qPCR of supernatant HBV DNA vs DMSO control, read-out: viral load lowering EC50 (Activity).
As for `Cc1cn(-c2ccccc2F)nc1CNC(=O)C1CC(C(=O)Nc2ccc(F)c(Cl)c2)N(C)S(=O)(=O)N1` (single isomer, unassigned) [1142-ISOMER-A, N3-(3-chloro-4-fluoro-phenyl)-N5-[[1-(2-fluorophenyl)-4-methyl-pyrazol-3-yl]methyl]-2-methyl-1,1-dioxo-1,2,6-thiadiazinane-3,5-dicarboxamide], the EC50 was under 50 nM. With `CN(C)CCCCc1cnn(-c2ncc(CNC(=O)C3CC(C(=O)Nc4ccc(F)c(Cl)c4)N(C)S(=O)(=O)N3)s2)c1` (single isomer, unassigned) [1197-ISOMER-A, N3-(3-chloro-4-fluoro-phenyl)-N5-[[2-[4-[4-(dimethylamino)butyl]pyrazol-1-yl]thiazol-5-yl]methyl]-2-methyl-1,1-dioxo-1,2,6-thiadiazinane-3,5-dicarboxamide], the EC50 is 100 to 10000 nM. The same measure, in the same setting: with `CN1C(C(=O)Nc2ccc(F)c(Cl)c2)CC(C(=O)NCc2cnc(-c3ccc(OCCN4CCCCC4)cc3)s2)NS1(=O)=O` (stereo not drawn) [Compound 922] the figure was under 50 nM. On the same count and under the same terms, with `CN1C(C(=O)Nc2ccc(F)c(Cl)c2)CC(C(=O)NC2CCN(c3ccnc(F)c3)CC2)NS1(=O)=O` (single isomer, unassigned) [1040-ISOMER-A, N3-(3-chloro-4-fluoro-phenyl)-N5-[1-(2-fluoro-4-pyridyl)-4-piperidyl]-2-methyl-1,1-dioxo-1,2,6-thiadiazinane-3,5-dicarboxamide] the figure was under 50 nM.

`CN1C(C(=O)Nc2ccc(F)c(Cl)c2)CC(C(=O)NCc2nc3ccc(O)cc3s2)NS1(=O)=O` (stereo not drawn) [Compound 1010]: the EC50 was under 50 nM. Still for that read-out and setting: in the case of `CN1C(C(=O)Nc2ccc(F)c(Cl)c2)CC(C(=O)NC2CCCCC2)NS1(=O)=O` (stereo not drawn) [Compound 728] it was 100 to 10000 nM; in that of `Cc1nc(-c2ccccn2)sc1CNC(=O)C1CC(C(=O)Nc2ccc(F)c(Cl)c2)N(C)S(=O)(=O)N1` (single isomer, unassigned) [1065-ISOMER-A, N3-(3-chloro-4-fluoro-phenyl)-2-methyl-N5-[[4-methyl-2-(2-pyridyl)thiazol-5-yl]methyl]-1,1-dioxo-1,2,6-thiadiazinane-3,5-dicarboxamide], 100 to 10000 nM. For the compound `CN1C(C(=O)Nc2ccc(F)c(C#N)c2)CC(C(=O)NC2CCN(C(=O)OC(C)(C)C)CC2)NS1(=O)=O` (stereo not drawn) [Compound 868], the EC50 was under 50 nM. For `Cc1nc2c(s1)C(NC(=O)C1CC(C(=O)Nc3ccc(F)c(Cl)c3)N(C)S(=O)(=O)N1)CCC2` (stereo not drawn) [Compound 918], the half-maximal effective concentration (EC50) was under 50 nM.

For `CN1C(C(=O)Nc2ccc(F)c(Cl)c2)CC(C(=O)NCc2cnc(-c3ccc(OCCCN4CCCCC4)cc3)s2)NS1(=O)=O` (stereo not drawn) [Compound 942], the 50% effective concentration (EC50) lay in the range of 50 to 100 nM. Still for that read-out and setting: in the case of `CN1C(C(=O)Nc2ccc(F)c(Cl)c2)CC(C(=O)NC2CCOCC2)NS1(=O)=O` (stereo not drawn) [Compound 738] it was 50 to 100 nM; in that of `CN1C(C(=O)Nc2ccc(F)c(Cl)c2)CC(C(=O)NCc2nc3ccccc3s2)NS1(=O)=O` (single isomer, unassigned) [Compound 689-ISOMER-A, N5-(1,3-benzothiazol-2-ylmethyl)-N3-(3-chloro-4-fluoro-phenyl)-2-methyl-1,1-dioxo-1,2,6-thiadiazinane-3,5-dicarboxamide], 100 to 10000 nM.

On to `CN1C(C(=O)Nc2ccc(F)c(Cl)c2)CC(C(=O)NCc2cc(-c3ccc(F)cc3)nn2C)NS1(=O)=O` (stereo not drawn) [Compound 1143], for which the EC50 is under 50 nM. `Cc1ncc(CNC(=O)C2CC(C(=O)Nc3ccc(F)c(Cl)c3)N(CC(F)(F)F)S(=O)(=O)N2)s1` (stereo not drawn) [Compound 891]: the EC50 was 100 to 10000 nM.

`CN1C(C(=O)Nc2ccc(F)c(Cl)c2)CC(C(=O)NCc2csc(-c3ccc(OCCN4CCCCC4)cc3)n2)NS1(=O)=O` (single isomer, unassigned) [Compound 957-ISOMER-A, N3-(3-chloro-4-fluoro-phenyl)-2-methyl-1,1-dioxo-N5-[[2-[4-[2-(1-piperidyl)ethoxy]phenyl]thiazol-4-yl]methyl]-1,2,6-thiadiazinane-3,5-dicarboxamide]: the EC50 was under 50 nM. Still for that read-out and setting: with `CN1C(C(=O)Nc2ccc(F)c(Cl)c2)CC(C(=O)NCc2cnc(-c3cccc(Cl)c3)s2)NS1(=O)=O` (stereo not drawn) [Compound 913] the figure was 50 to 100 nM. Same read-out and setting: in the case of `Cc1cnc(CNC(=O)C2CC(C(=O)Nc3ccc(F)c(Cl)c3)N(C)S(=O)(=O)N2)s1` (stereo not drawn) [Compound 687] it was under 50 nM; in that of `CN1C(C(=O)Nc2ccc(F)c(Cl)c2)CC(C(=O)NC2CCN(C(=O)OCCN3CCCCC3)CC2)NS1(=O)=O` (stereo not drawn) [Compound 963], 100 to 10000 nM. As for `CN1C(C(=O)Nc2ccc(F)c(Cl)c2)CC(C(=O)NCc2cnc(-c3cccnc3)s2)NS1(=O)=O` (single isomer, unassigned) [Compound 911-ISOMER-A, N3-(3-chloro-4-fluoro-phenyl)-2-methyl-1,1-dioxo-N5-[[2-(3-pyridyl)thiazol-5-yl]methyl]-1,2,6-thiadiazinane-3,5-dicarboxamide], the EC50 is 100 to 10000 nM. On the same count and under the same terms, with `CN1C(C(=O)Nc2ccc(F)c(Cl)c2)CC(C(=O)Nc2cnn(C)c2)NS1(=O)=O` (stereo not drawn) [Compound 478] the figure was 100 to 10000 nM; with `CCN1CCC(Oc2ccc(-c3ncc(CNC(=O)C4CC(C(=O)Nc5ccc(F)c(Cl)c5)N(C)S(=O)(=O)N4)s3)cc2)CC1` (stereo not drawn) [Compound 921], 50 to 100 nM; with `CN1C(C(=O)Nc2ccc(F)c(Cl)c2)CC(C(=O)NC2CCN(c3ccnc(Br)c3)CC2)NS1(=O)=O` (stereo not drawn) [Compound 1036], under 50 nM. The same measure, in the same setting: with `CN1C(C(=O)Nc2ccc(F)c(C#N)c2)CC(C(=O)NCc2ccccc2)NS1(=O)=O` (stereo not drawn) [Compound 833] the figure was 100 to 10000 nM. On the same count and under the same terms, in the case of `CN1C(C(=O)Nc2ccc(F)c(Cl)c2)CC(C(=O)NCc2nn(-c3ccccc3F)c3ccccc23)NS1(=O)=O` (stereo not drawn) [Compound 1086] it was under 50 nM; in that of `CN1C(C(=O)Nc2ccc(F)c(Cl)c2)CC(C(=O)N[C@H]2CCN(c3ccnc(Cl)c3)C2)NS1(=O)=O` (stereo partly drawn) [Compound 1055-S], under 50 nM; in that of `CN1C(C(=O)Nc2ccc(F)c(Cl)c2)CC(C(=O)NC2CCN(c3ccnc(F)c3)CC2)NS1(=O)=O` (stereo not drawn) [Compound 1040], under 50 nM. For `CN1C(C(=O)Nc2ccc(F)c(Cl)c2)CC(C(=O)NCc2cc(-c3ccc(F)cc3)nn2C)NS1(=O)=O` (single isomer, unassigned) [1143-ISOMER-A, N3-(3-chloro-4-fluoro-phenyl)-N5-[[5-(4-fluorophenyl)-2-methyl-pyrazol-3-yl]methyl]-2-methyl-1,1-dioxo-1,2,6-thiadiazinane-3,5-dicarboxamide], the EC50 was 100 to 10000 nM. Turning to `Cc1cnc(CNC(=O)C2CC(C(=O)Nc3ccc(F)c(C#N)c3)N(C)S(=O)(=O)N2)s1` (stereo not drawn) [Compound 829], the EC50 lay in the range of 100 to 10000 nM.

Regarding `Cc1cnc(CNC(=O)C2CC(C(=O)Nc3ccc(F)c(Cl)c3)N(C)S(=O)(=O)N2)s1` (single isomer, unassigned) [Compound 687-ISOMER-A, N3-(3-chloro-4-fluoro-phenyl)-2-methyl-N5-[(5-methylthiazol-2-yl)methyl]-1,1-dioxo-1,2,6-thiadiazinane-3,5-dicarboxamide], the 50% effective concentration (EC50) lay in the range of 100 to 10000 nM. For the compound `CC(NC(=O)C1CC(C(=O)Nc2ccc(F)c(Cl)c2)N(C)S(=O)(=O)N1)c1ccccn1` (stereo not drawn) [Compound 736], the 50% effective concentration (EC50) was in the range of 50 to 100 nM. The same measure, in the same setting: in the case of `C[C@@H](NC(=O)C1CC(C(=O)Nc2ccc(F)c(C#N)c2)N(C)S(=O)(=O)N1)c1ccc(F)cc1` (stereo partly drawn) [Compound 776] it was 100 to 10000 nM; in that of `CN1C(C(=O)Nc2ccc(F)c(Cl)c2)CC(C(=O)NCc2cc(-c3ccccc3)on2)NS1(=O)=O` (stereo not drawn) [Compound 1149], under 50 nM. As to `CN1C(C(=O)Nc2ccc(F)c(Cl)c2)CC(C(=O)N[C@H]2CCCc3ccccc32)NS1(=O)=O` (stereo partly drawn) [Compound 731], the EC50 lay within 100 to 10000 nM.
